Measurements published in paper PMC11148772, “Inhibition of protein translational machinery in triple-negative breast cancer as a promising therapeutic strategy” (Cell Reports Medicine, 2024).

What was measured:
[1] = tested on: normal breast epithelial cells MCF10A; assay: MTT cell viability assay; assay type: cell-based; conditions: Homo sapiens, MCF-10A, 48 h
Experimental: (§1) MDA-MB-231 (5000 cells per well), MDA-MB-468 (6000 cells per well), SUM159 (3000 cells per well), 4T1 (2000 cells per well), EMT6 (2000 cells per well), E0771 (3000 cells per well), MCF10A (5000 cells per well) and MCF12A (5000 cells per well) cells were seeded in 96-well culture plates. On the next day, cells were treated with either DMSO or indicated concentrations of SU056 for 48 h 3-(4,5-dimethylthiazol-2-yl)-2,5-diphenyltetrazolium bromide (MTT) (0.5 mg/mL) was dissolved in 1x PBS and 50 μL were added to each well and allowed to form formazan crystals (1–2 h) followed by removal of MTT. Formazan crystals were dissolved in DMSO and plates were scanned at 570nm using a Tecan multimode plate reader.
(§2) Data S1. SU056 induces cell cycle arrest and apoptotic cell death, related to Figure 1 A) The growth inhibitory effect of SU056 was evaluated using the MTT assay (0.5 mg/ml in 1x PBS). Normal breast epithelial cells (MCF10A and MCF12A) were plated in a 96 well plate. On the next day, cells were treated with vehicle (DMSO) alone or 0.005-50 μM of […]
(§3) SU056 in fresh medium. […]
(§4) SU056 treatment led to cell cycle arrest at the G2/M phase and induced cell death in TNBC cells. E) MDA-MB-231 and F) MDA-MB-468 cells were analyzed for cell death using Annexin V-FITC Apoptosis Assay kit. Cell lysates were analyzed for Bax and BCL-2 proteins. b-actin was probed to ensure equal protein loading. […]

[2] = tested on: normal breast epithelial cells MCF12A; assay: MTT cell viability assay; assay type: cell-based; conditions: Homo sapiens, MCF-12A, 48 h
Experimental: as §1, §2, §3, §4

CA1262-PDX-TNBC = assay: Patient-derived xenograft; assay type: in vivo, mouse; conditions: 50 mg/kg orally, NSG mice
From the text: (§5) Different patient-derived xenograft (PDX) of TNBC were used in this study. The Institutional Animal Care & Use Program of Oregon Health and Science University approved the protocol (#IP00003247). SUTI151-PDX-TNBC was kindly provided by Stefanie S. Jeffrey, MD, Stanford University, CA, USA.[48] CA1616-PDX-TNBC, CA1262-PDX-TNBC, and MA2821-PDX-TNBC were procured from the NCI Patient-Derived Models Repository (PDMR). Information of the PDX samples from NCI can be accessed at https://pdmr.cancer.gov/models/pdx.htm. 6–8 weeks old NSG (female) mice were anesthetized with isoflurane and tumor cells were xenografted into 5th mammary fat pad. Post-xenograft, once tumors reached a size of 50–100 mm^3, SU056 treatment (50 mg/kg body weight administered by oral gavage, 5 days per week) was started. At the end of treatment, mice were euthanized under deep anesthesia and tumors were surgically removed, measured, and weighed.

SUTI151-PDX-TNBC = assay: Patient-derived xenograft; assay type: in vivo, mouse; conditions: 50 mg/kg orally, NSG mice
From the text: as §5

CA1616-PDX-TNBC = assay: Patient-derived xenograft; assay type: in vivo, mouse; conditions: 50 mg/kg orally, NSG mice
From the text: as §5

[3] = tested on: translation machinery molecules (RPLs, RPSs, eIFs) in MDA-MB-231-YB-1 knockdown cells; assay: CETSA in YB-1 knockdown cells; assay type: binding, human; conditions: YB-1 knockdown vs scrambled control cells
From the text: In the second CETSA experiment with MDA-MB-231- YB-1 knockdown cells, the Orbitrap Eclipse Tribrid mass spectrometer parameters consisted of setting the cycle time at Top-speed at 1 s, the mass scan range set between 375 and 1800 m/z, and a mass resolution of 50,000. The normalized AGC target and maximum injection time was set to standard and auto respectively. The precursor ions were selected from highest to lowest charge state, sorted by the lowest m/z, and fragmented using Higher Energy Collisional Dissociation (HCD) with a fixed collisional energy of 38%. Dynamic exclusion was enabled for 60 s with a mass tolerance of ±10 ppm. The normalized AGC target set to 200% with a maximum injection time of 86 ms. MS2 fragments were detected in the Orbitrap with a mass resolution of 50,000 and scan range window of 110–1800 m/z.
Proteins were quantified using individual spectra matched peptides based on a sum-based bootstrap algorithm, which used the TMT reporter ion intensity after correcting for isotope impurities with Proteome Discoverer 2.4. The protein levels were compared between the vehicle and SU056 treated samples. The lowest temperature was used as a reference to calculate the log2 ratio of the soluble fraction signal at each temperature, and the signal at each temperature was compared to the […] temperature to estimate the percentage of signal lost in the soluble fraction. […]

## O=C1OCC2=C1C(c1cccc(F)c1)c1cc3c(cc1N2CCO)OCO3 (stereo not drawn) [SU056, 9-(3-fluorophenyl)-5-(2-hydroxyethyl)-6,9-dihydro-[1,3]dioxolo[4,5-g]furo[3,4-b]quinolin-8(5H)-one]
[1]
  IC50: 4.77 ± 1.61 µM
[2]
  IC50: 4.65 ± 2.25 µM
CA1262-PDX-TNBC
  tumor volume reduced compared to vehicle control: 49.8%
  tumor weight decreased: 34.67%
SUTI151-PDX-TNBC
  reduction in tumor weight: 29%
  tumor volume reduced compared to control: 37%
CA1616-PDX-TNBC
  tumor volume reduced compared to vehicle control: 63.1%
  tumor weight decreased: 43.6%
[3]
  thermal stability of translation machinery molecules (RPLs, RPSs, and eIFs): does not increase
